What is called Ki is the equilibrium dissociation constant of an inhibitor or competing ligand from its target. The EC50 is the concentration giving half of the maximal effect. As usually defined, the Kd is a measure of binding affinity in units of concentration.

The values that follow come from patent publication US7517658B2, “Methods for preparing compositions using a SNORF33 receptor” (H. Lundbeck A/S, priority 1999, dated 2009).

SMILES strings stand for the structures. “And” between values parts separate entries of the source, which are not always exact repeats. Equal entries are not always repeated.

In experiment [1] the target is T1, hSNORF33 (Homo sapiens, UniProt Q96RJ0).
T1 sequence (Q96RJ0 1-339): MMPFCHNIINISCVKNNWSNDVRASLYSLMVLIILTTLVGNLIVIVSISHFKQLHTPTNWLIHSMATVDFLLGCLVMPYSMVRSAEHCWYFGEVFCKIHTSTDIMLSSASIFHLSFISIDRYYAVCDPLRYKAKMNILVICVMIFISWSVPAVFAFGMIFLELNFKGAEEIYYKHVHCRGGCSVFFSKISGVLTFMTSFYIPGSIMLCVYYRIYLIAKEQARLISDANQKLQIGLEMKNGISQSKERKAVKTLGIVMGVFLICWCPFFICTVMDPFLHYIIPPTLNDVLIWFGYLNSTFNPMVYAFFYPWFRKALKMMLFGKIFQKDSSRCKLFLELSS
Kind of experiment: [3H]-TYR binding (saturation and displacement) to human SNORF33 COS-7 membranes. On the set-up: expressed in transfected cells; host or cells: COS-7 (membranes). The conditions noted are these: for Ki: human SNORF33 in transfected COS-7 membranes, read-out: Mean Ki ± S.D.M., displacement of [3H]-tyramine. Here is the method: (§1) [^3H]-TYR and [^3H]-T binding assays were performed essentially as described by Mallard et al. (1992), with minor modifications. Radioligand binding assays were performed by diluting membranes prepared from cells expressing the receptor (with co-expression of the rat G-protein alpha S subunit for human SNORF33) in 25 mM Gly-Gly buffer (Sigma, pH=7.4 @ 0° C.) containing 5 mM ascorbate and 10 μM pargyline (final protein concentration in assay=100-300 μg/ml). Membranes were then incubated with either [^3H]-TYR (American Radiochemicals, specific activity 60 mCi/μmole) or [^3H]-T (Amersham, specific activity 98 mCi/μmole) in the presence or absence of competing ligands on ice for 30 min in a total volume of 250 μl in 96 well microtiter plates. The bound ligand was separated from free by filtration through GF/B filters presoaked in 0.5% polyethyleneimine (PEI), using Tomtec (Wallac) or Brandel Cell Harvester vacuum filtration device. After addition of Ready Safe (Beckman) scintillation fluid, bound radioactivity was quantitated using a Trilux (Wallac) scintillation counter (approximately 20% counting efficiency of bound counts). Data was fit to non-linear curves using GraphPad Prism.
(§2) In this manner, agonist or antagonist compounds that bind to the receptor may be identified as they inhibit the binding of the labeled ligand to the membrane protein of cells expressing the said receptor. Non-specific binding was defined as the amount of radioactivity remaining after incubation of membrane protein in the presence of 10 μM of the unlabeled amine corresponding to the radioligand used. In equilibrium saturation binding assays, membrane preparations or intact cells transfected with the receptor are incubated in the presence of increasing concentrations of the labeled compound to determine the binding affinity of the labeled ligand. The binding affinities of unlabeled compounds may be determined in equilibrium competition binding assays, using a fixed concentration of labeled compound in the presence of varying concentrations of the displacing ligands.
On the technique in general: Loss of bound radioactivity is the signal in a displacement assay; it reports binding, not function.

Experiment [2] concerns the target T2, rSNORF33 (Rattus norvegicus, UniProt Q923Y9). Kind of experiment: [3H]-TYR binding (saturation and displacement) to rSNORF33-transfected COS-7 membranes. To be noted: for Ki: rSNORF33 in transfected COS-7 membranes, 2–4 experiments, read-out: Mean Ki ± S.D.M., displacement of [3H]-tyramine. Also noted: expressed in transfected cells; host or cells: COS-7 (transient). Here is the method:
as §1, with “Radioligand” for “[^3H]-TYR and [^3H]-T binding assays were performed essentially as described by Mallard et al. (1992), with minor modifications. Radioligand”
as §2

Experiment [3] has as its target T2, rSNORF33. The experiment is described as follows: Intracellular cAMP release in rSNORF33-transfected COS-7 cells. Also noted: expressed in transfected cells; host or cells: COS-7 (transient). Format: cell-based. The conditions noted are these: for Agonist activity at cloned rSNORF33 receptor: data not shown. Here is the method: The receptor-mediated stimulation or inhibition of cyclic AMP (cAMP) formation may be assayed in cells expressing the mammalian receptors. Cells are plated in 96-well plates or other vessels and preincubated in a buffer such as HEPES buffered saline (NaCl (150 mM), CaCl2 (1 mM), KCl (5 mM), glucose (10 mM)) supplemented with a phosphodiesterase inhibitor such as 5 mM theophylline, with or without protease inhibitor cocktail (For example, a typical inhibitor cocktail contains 2 μg/ml aprotinin, […] leupeptin, and 10 μg/ml phosphoramidon.) for 20 min at 37° C., in 5% CO2. Test compounds are added with or without […] forskolin and incubated for an additional 10 min at 37° C. The medium is then aspirated and the reaction stopped by the addition of 100 mM HCl or other methods. The plates are stored at 4° C. for 15 min, and the cAMP content in the stopping solution is measured by radioimmunoassay. Radioactivity may be quantified using a gamma counter equipped with data reduction software. Specific modifications may be performed to optimize the assay for the receptor or to alter the detection method of cAMP.
COS-7 cells were transiently transfected with rSNORF33 gene using the calcium phosphate method and plated in 96-well plates. 48 hours after transfection, cells were washed twice with Dulbecco's phosphate buffered saline (PBS) supplemented with 10 mM HEPES, 10 mM glucose, 5 mM theophylline and 10 μM pargyline and were incubated in the same buffer for 20 min at 37° C., in […] 5% CO2. Test compounds were added and cells were incubated for an additional 10 min at 37° C. The medium was then aspirated and the reaction stopped by the addition of 100 mM HCl. The plates were stored at −20° C. for 2-5 days. For cAMP measurement, plates were thawed and the cAMP content in each well was measured by radioimmunoassay cAMP Scintillation Proximity Assay (Amersham Pharmacia Biotech). Radioactivity was quantified using microbeta Trilux counter (Wallac).

The target in experiment [4] is T2, rSNORF33. The experiment is described as follows: Cl- currents in Xenopus oocytes expressing rSNORF33 and CFTR (voltage clamp). It counts as cell-based. To be noted: for Cl- currents elicited: at 100 μM. Here is the method:
Female Xenopus laevis (Xenopus-1, Ann Arbor, Mich.) were anesthetized in 0.2% tricain (3-aminobenzoic acid ethyl ester, Sigma Chemical Corp.) and a portion of ovary was removed using aseptic technique (Quick and Lester, 1994). Oocytes were defolliculated, using 3 mg/ml collagenase (Worthington Biochemical Corp., Freehold, N.J.) in a solution containing 82.5 mM NaCl, 2 mM KCl, 1 mM MgCl2 and 5 mM HEPES, pH 7.5, and injected (Nanoject, Drummond Scientific, Broomall, Pa.) 24 h later with 50-70 nl of individual mRNAs or mRNA mixtures (see below).
Elevation of intracellular cAMP is monitored in oocytes by expression of the cystic fibrosis transmembrane conductance regulator (CFTR) whose Cl^−-selective pore opens in response to phosphorylation by protein kinase A (Riordan, 1993). To prepare RNA transcripts for expression in oocytes, a template was created by PCR using 5′ and 3′ primers derived from the published sequence of the CFTR gene (Riordan, 1993). The 5′ primer included the sequence coding for T7 polymerase so that transcripts could be generated directly from the PCR products without cloning. Oocytes were injected with 10 ng of CFTR mRNA in addition to 10-15 ng mRNA for SNORF33. Electrophysiological recordings were made after a 2-3 day incubation at 18° C.
Dual electrode voltage clamp (“GeneClamp”, Axon Instruments Inc., Foster City, Calif.) was performed using 3 M KCl-filled glass microelectrodes having resistances of 1-3 Mohms. Unless otherwise specified, oocytes were voltage clamped at a holding potential of −80 mV. During recordings, oocytes were bathed in continuously flowing (1-3 ml/min) medium containing 96 mM NaCl, 2 mM KCl, 1.8 mM CaCl2, 1 mM MgCl2, and 5 mM HEPES, pH 7.5 (ND96). […] Experiments were carried out at room temperature. All values are expressed as mean±standard error of the mean.

Experiment [5] deals with T2, rSNORF33. The description is as above. It counts as cell-based. To be noted: test compound 100 μM except where noted; 100 nM TYR.
For experiment [6], the target named is T3, mouse SNORF33 (Mus musculus, UniProt Q923Y8).
T3 construct: expressed in transfected cells; host or cells: COS-7 (membranes)
T3 sequence (Q923Y8 whole entry): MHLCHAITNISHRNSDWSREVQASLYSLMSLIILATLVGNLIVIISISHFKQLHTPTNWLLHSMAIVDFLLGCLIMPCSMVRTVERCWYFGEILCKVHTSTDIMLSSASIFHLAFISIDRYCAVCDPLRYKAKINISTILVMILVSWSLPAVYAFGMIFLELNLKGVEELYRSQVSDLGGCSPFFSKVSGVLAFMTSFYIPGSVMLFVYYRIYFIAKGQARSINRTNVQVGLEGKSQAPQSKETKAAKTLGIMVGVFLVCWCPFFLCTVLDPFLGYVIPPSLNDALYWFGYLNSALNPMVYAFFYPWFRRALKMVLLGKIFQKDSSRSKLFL
Kind of experiment: [3H]-TYR binding (saturation and displacement) to mouse SNORF33 COS-7 membranes. As to the method:
as §1, §2

The mark [7] stands for this setting: transiently transfected COS-7 cells, 3–8 experiments, read-out: Mean EC50 ± S.E.M., stimulation of rSNORF33 measured by intracellular cAMP release.

T2 sequence (Q923Y9 whole entry): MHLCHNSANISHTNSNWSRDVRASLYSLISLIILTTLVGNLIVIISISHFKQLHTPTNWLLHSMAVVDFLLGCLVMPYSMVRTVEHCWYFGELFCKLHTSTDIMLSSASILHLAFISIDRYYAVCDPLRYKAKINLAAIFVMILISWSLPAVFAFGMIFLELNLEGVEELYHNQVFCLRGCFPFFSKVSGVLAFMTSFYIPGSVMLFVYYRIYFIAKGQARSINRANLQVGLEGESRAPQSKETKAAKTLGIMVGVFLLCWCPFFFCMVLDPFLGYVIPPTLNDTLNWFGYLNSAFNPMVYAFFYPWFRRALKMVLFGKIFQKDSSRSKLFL

For `NCCc1cccc(O)c1` [3-OH-PEA], the Ki came out at 79 ± 16 nM in experiment [1] and 529 ± 236 nM in experiment [2].

As for `NCCc1c[nH]c2ccc(F)cc12` [5-Fluoro-Tryptamine], the EC50 in experiment [3] (setting [7]) stood at 232 ± 38 nM.

Consider `COc1ccc2[nH]cc(CCN)c2c1` [5-Methoxy-Tryptamine], for which the EC50 in experiment [3] (setting [7]) came out at 414 ± 161 nM. Also, in experiment [2], the inhibition constant (Ki) is 209 ± 68 nM.

On to `Cc1ccc2[nH]cc(CCN)c2c1` [5-Methyl-Tryptamine], for which the EC50 in experiment [3] (setting [7]) is 752 ± 285 nM.

In the case of `CNCCCN1c2ccccc2CCc2ccccc21` [Desipramine], in experiment [3] (setting [7]), the EC50 turned out to be 4300 ± 1870 nM.

With `NCCc1ccc(O)c(O)c1` [Dopamine (DA), Dopamine], the “Cl- currents elicited” value in experiment [4] is reported as “more weakly”.

As to `NCCC(=O)c1ccccc1N` [Kynuramine], the Ki amounted to 1390 ± 810 nM in experiment [1] and 485 ± 9 nM in experiment [2]. For the same molecule, the EC50 in experiment [3] (setting [7]) amounted to 90 ± 20 nM.

As for `CN[C@@H](C)Cc1ccccc1` [Methamphetamine], the Ki in experiment [1] was 189 ± 102 nM; in experiment [2], 391 ± 246 nM. The concentration giving a half-maximal response (EC50) in experiment [3] (setting [7]) was determined as 115 ± 66 nM.

`NC[C@H](O)c1ccc(O)c(O)c1` [NE, norepinephrine]: the “Agonist activity at cloned rSNORF33 receptor” value in experiment [3] is “inactive”.

On to `CC(COc1ccccc1)N(CCCl)Cc1ccccc1` (centres unmarked) [Phenoxybenzamine], for which the “Antagonism of TYR stimulation of rSNORF33” value (“Antagonism” for short) in experiment [5] was “irreversible inhibition”.

`CC(N)C(O)c1ccccc1` (centres unmarked) [Phenylpropanolamine (PPA), Phenylpropanolamine]: a half-maximal effect in experiment [3] (EC50) was put at 1800 ± 1380 nM.

As for `NCCc1c[nH]c2ccc(O)cc12` [Serotonin (5-HT), 5-Hydroxytryptamine], the “Fold less potent than the three trace amines (TYR, PEA, T) in activating rSNORF33” value in experiment [3] (cAMP assay) amounted to 70 fold. The EC50 in experiment [3] (setting [7]) is 1240 ± 526 nM; in experiment [4] (oocytes expressing rSNORF33 and CFTR, -80 mV, mean ± S.E.M., read-out: Calculated EC50, Cl- current), 3776 ± 3.17 nM. The Ki in experiment [2] turned out to be 976 ± 120 nM. Besides, in experiment [4], the “Cl- currents elicited” value is listed as “more weakly”.

Turning to `NCCc1ccc(O)cc1` [[^3H]-TYR], the “Specific binding as % of total binding” value in experiment [1] (at about 15 nM [3H]-TYR, human SNORF33) is recorded as ~70%; in experiment [6] (at about 15 nM [3H]-TYR, mouse SNORF33), “approximately 94%”. Besides, the “Bmax, saturation binding” value is 440 fmol/mg protein and 603 fmol/mg protein in experiment [1] (human SNORF33 membranes); 1090 fmol/mg protein and 848 fmol/mg protein in experiment [6] (mouse SNORF33 membranes); 1400 fmol/mg protein and 1164 fmol/mg protein in experiment [2] (rSNORF33 COS-7 membranes, n=2). For the same molecule, the Specific binding in experiment [2] (20 nM radioligand, rSNORF33) is 90%. In addition, in experiment [2] (rSNORF33 COS-7 membranes, n=2), the Kd is 12.5 nM and 14.8 nM.

As for `c1ccc(C2CC2)c(OCC2=NCCN2)c1` [cirazoline], the “Inhibition of the response to TYR” value in experiment [4] (test compound 100 μM except where noted, 100 nM TYR (EC80)) is “greater than 90%”.

As to `NCCc1c[nH]cn1` [histamine], the “Agonist activity at cloned rSNORF33 receptor” value in experiment [3] is “inactive”.

As for `CN1C[C@H](CNC(=O)OCc2ccccc2)C[C@@H]2c3cccc4c3c(cn4C)C[C@H]21` [metergoline], the “Antagonism” value in experiment [5] is listed as “significantly block”.

As to `CN1CCN2c3ccccc3Cc3ccccc3C2C1` (centres unmarked) [mianserin], in experiment [5], the “Antagonism” value is listed as “did not significantly inhibit”.

With `Cc1ccc(N(CC2=NCCN2)c2cccc(O)c2)cc1` [phentolamine], the “Antagonism” value in experiment [5] is “agonist effect”.

Turning to `CC(C)NCC(O)COc1cccc2[nH]ccc12` (centres unmarked) [pindolol], in experiment [5], the “Antagonism” value is “significantly block”.

For the molecule `CC(C)NCC(O)COc1cccc2ccccc12` (centres unmarked) [propanolol], in experiment [5], the “Antagonism” value is recorded as “significantly block”.

For the molecule `COC(=O)[C@H]1[C@H]2C[C@H]3c4[nH]c5ccccc5c4CCN3C[C@H]2CC[C@@H]1O` [rauwolscine], in experiment [5], the “Antagonism” value is “did not significantly inhibit”.

Consider `COC(=O)[C@@H]1[C@H]2C[C@H]3c4[nH]c5ccccc5c4CCN3C[C@@H]2CC[C@@H]1O` [yohimbine], for which the “Antagonism” value in experiment [5] is reported as “did not significantly inhibit”.
